From patent US20170071976A1, “PHARMACEUTICAL SOLUTION HAVING ANTI-TUMOR EFFECT-ENHANCING AND TOXICITY-REDUCING EFFECT, AND PHARMACEUTICAL COMPOSITION COMPRISING SAME” (priority 2014, published 2017)

Key:
[1] = tested on: Ehrlich ascites tumor (EAC); test: Survival of Ehrlich ascites tumor-bearing mice, intraperitoneal perfusion (lavage) with deuterium oxide and 5-FU; type: in vivo, ICR mice; conditions: i.p., 10 days; for MST: control 14.1 ± 1.9
Procedure: Studying 1: Efficacy of intraperitoneal perfusion (lavage) with deuterium oxide in combination with 5-fluorouracil on Ehrlich ascites tumor (EAC)-bearing mice.
Laboratory animal: 4 to 5 week-aged male ICR mice, provided by Shanghai SIPPR-BK Laboratory Animal Co. Ltd.
1. Modeling: EAC ascitic fluid was taken and adjusted to 1×10^7 cells/ml, which was inoculated into the peritoneal cavity of mice at 0.1 ml/mouse. 2. Grouping and dosing: the animals were randomized 3 days after inoculation, and meanwhile drugs were given to mice in each group, following the dosing scheme shown in Table 10.
In Table 10, “Sodium chloride deuterium oxide solution 0.1 ml/animal+5-FU 20 mg/kg” means that each mouse was given 0.1 ml sodium chloride deuterium oxide solution, in which 5-FU had been dissolved to make a dose of 20 mg/kg.
After the dosing, ascitic fluid was taken from 3 mice from each group, the volume of the ascitic fluid was measured, the number of tumor cells in the ascitic fluid was counted, and the rest of animals were continuously fed. Median survival time (MST) was recorded for animals in each group to evaluate the survival time for each group.
The comparison between the treatment group and the control group was expressed by T/C (%) which is calculated by the following equation: […]
T MST: MST of the treatment group; C MST: MST of the negative control group.
The evaluation criterion uses 125% as a cut-off threshold. When T/C %≧125%, effective, otherwise ineffective.
The mean value was expressed in X±SD. Inter-group analysis was statistically performed with t test. The results were statistically analyzed using SPSS (Statistical Package for the Social Science) 17.0.

[2] = tested on: human lung cancer A549 cells; test: Cell invasion assayed by Transwell; type: cell-based; conditions: invaded cells, control 183.0 ± 12.3
Procedure: Cell lines: human colon cancer HCT-116 cells and human lung cancer A549 cells were provided by NANJING […] BIOTECH. CO., LTD. […] The cell suspension was centrifuged at 800 to 1,000 rpm for 5 min, and the supernatant was discarded; 1.4. A complete culture medium was added to the cell pellet which was well mixed by gentle pipetting, the cell suspension was transferred to a culture flask, and the cells were cultured by supplementing culture medium. 1. […] After incubation of cells with the test drugs for 24 hours, serum was removed, and the cells were incubated under starvation with an incomplete culture medium for 24 hours; 3. Matrigel was placed at 4° C. in advance to thaw overnight; 4. Thawed Matrigel was 1:1 diluted with the incomplete culture medium, 30 μl diluted Matrigel was added to the upper compartment of Transwell and incubated at 37° C. for 120 min to gel the Matrigel; 5. Cells from different groups were digested, counted, and then adjusted to a density of 1×10^5 cells/ml with the incomplete culture medium, 100 μl cell suspension was added to the upper compartment (small compartment) of Transwell, and 500 μl medium containing 20% FBS was added to the lower compartment of Transwell; 6. A 24-well cell culture plate was placed in an incubator at 37° C. and 5% CO2 to culture the cells for 24 hours; 7. […] The assay was repeated one more time.

Compound	T/C(%) ([1]; 5-FU 20 mg/kg in NS)	MST ([1]; 5-FU 20 mg/kg in NS) [days]	T/C(%) ([1]; 5-FU 30 mg/kg in NS)	MST ([1]; 5-FU 30 mg/kg in NS) [days]	Number of cells (A549) ([2]; deuterium oxide 1.8% (v/v))	Number of cells (A549) ([2]; deuterium oxide 7.5% (v/v))	Number of cells (A549) ([2]; deuterium oxide 15% (v/v))	Number of cells (A549) ([2]; deuterium oxide 30% (v/v))	Number of cells (A549) ([2]; deuterium oxide […] (v/v))
O=c1[nH]cc(F)c(=O)[nH]1 [Example 5-FU, 5-fluorouracil]	154.6	21.8 ± 2.9	158.1	22.3 ± 4.9					
[2H]O[2H] [Deuterium oxide]					74.3 ± 11.0	43.0 ± 4.4	29.3 ± 1.5	22.0 ± 1.7	54.0 ± 2.0
